Source: ChEMBL document CHEMBL3352543, “Synthesis and structure-activity relationship of novel cinnamamide derivatives as antidepressant agents” (Bioorg Med Chem Lett, 2014)

Tests used:
Mus musculus [1] = assay: Toxic CNS activity in C57BL/6 mouse assessed as locomotor activity by measuring exploratory activity counts at 10 mg/kg, ig by open-field test (reference value: 94.50 +/- 6.18 counts); assay type: toxicity, organism-based; parameters: dose 10 mg/kg, route intragastric; conditions: in vivo, po
Mus musculus [2] = assay: Antidepressant activity in C57BL/6 mouse assessed as decrease in immobility duration at 10 mg/kg, ig by tail suspension test; assay type: functional; conditions: C57BL/6, Tail, po, route intragastric
[3] = Solubility in water; assay type: physicochemical; conditions: buffer
Mus musculus [4] = assay: Antidepressant activity in C57BL/6 mouse assessed as decrease in immobility duration at 2.5 mg/kg, ig by forced swim test; assay type: functional; conditions: C57BL/6, po, route intragastric
Mus musculus [5] = assay: Antidepressant activity in C57BL/6 mouse assessed as decrease in immobility duration at 10 mg/kg, ig by forced swim test; assay type: functional; conditions: C57BL/6, po, route intragastric
Mus musculus [6] = assay: Antidepressant activity in ig dosed C57BL/6 mouse assessed as decrease in immobility duration by forced swim test; assay type: functional, organism-based
Mus musculus [7] = assay: Antidepressant activity in ig dosed C57BL/6 mouse assessed as decrease in immobility duration by tail suspension test; assay type: functional, organism-based
Mus musculus [8] = assay: Antidepressant activity in C57BL/6 mouse assessed as decrease in immobility duration at 5 mg/kg, ig by forced swim test; assay type: functional; conditions: C57BL/6, po, route intragastric

Q: What does the source list for O=C(/C=C/c1cc2c(c(C(F)(F)F)c1)OCO2)N1CCCCC1?
A: Activity (Mus musculus [1]): 83.6; inhibition in vivo at 10 mg/kg (Mus musculus [2]): 31.5%

Q: Which Activity (Mus musculus [1]) does the source give for CC(C)CNC(=O)c1cc2c(c(C(F)(F)F)c1)OCO2 here?
A: Its Activity is 93.2.

Q: What about the inhibition in vivo at 10 mg/kg (Mus musculus [2]) of the same compound?
A: The inhibition in vivo at 10 mg/kg was 33.1%.

Q: For CN(C)C(=O)/C=C/c1cc2c(c(C(F)(F)F)c1)OCO2, which Activity (Mus musculus [1]) is on record?
A: Its Activity is 84.

Q: And the inhibition in vivo at 10 mg/kg (Mus musculus [2])?
A: Its inhibition in vivo at 10 mg/kg is 12.6%.

Q: For O=C(/C=C/c1cc2c(c(C(F)(F)F)c1)OCO2)N1CCNCC1, which Activity (Mus musculus [1]) is on record?
A: Its Activity is 91.54.

Q: And the inhibition in vivo at 10 mg/kg (Mus musculus [2])?
A: The inhibition in vivo at 10 mg/kg was 21.8%.

Q: And the solubility [3]?
A: Its solubility is “soluble”.

Q: What does the source list for CC(C)CNC(=O)/C=C/c1cc(Cl)c2c(c1)OCO2?
A: Activity (Mus musculus [1]): 94.75; inhibition in vivo at 10 mg/kg (Mus musculus [2]): 29.1%

Q: For CC(C)CNC(=O)/C=C/c1cc2c(c(C(F)(F)F)c1)OCO2, which inhibition in vivo at 2.5 mg/kg (Mus musculus [4]) is on record?
A: Its inhibition in vivo at 2.5 mg/kg is 20.8%.

Q: What about the inhibition in vivo at 10 mg/kg (Mus musculus [5]) of the same compound?
A: Its inhibition in vivo at 10 mg/kg is 43.5%.

Q: And the Activity (Mus musculus [1])?
A: Its Activity is 99.4.

Q: And the inhibition (Mus musculus [6])?
A: The inhibition was “Dose-dependent effect”.

Q: And the inhibition in vivo at 10 mg/kg (Mus musculus [2])?
A: Its inhibition in vivo at 10 mg/kg is 42.5%.

Q: What about the inhibition (Mus musculus [7]) of the same compound?
A: Its inhibition is “Dose-dependent effect”.

Q: And the inhibition in vivo at 5 mg/kg (Mus musculus [8])?
A: Its inhibition in vivo at 5 mg/kg is 34.4%.

Q: For CC(C)CNC(=O)/C=C/c1ccc2c(c1)OCO2 [FOGARAMIDE], which Activity (Mus musculus [1]) is on record?
A: Its Activity is 89.24.

Q: And the inhibition in vivo at 10 mg/kg (Mus musculus [2])?
A: Its inhibition in vivo at 10 mg/kg is 13.2%.

Q: For O=C(c1cc2c(c(C(F)(F)F)c1)OCO2)N1CCCCC1, which Activity (Mus musculus [1]) is on record?
A: The Activity was 87.4.

Q: What about the inhibition in vivo at 10 mg/kg (Mus musculus [2]) of the same compound?
A: Its inhibition in vivo at 10 mg/kg is 37.1%.

Q: Which results are given for CC(C)CNC(=O)/C=C/c1cc(I)c2c(c1)OCO2?
A: Activity (Mus musculus [1]): 94.42; inhibition in vivo at 10 mg/kg (Mus musculus [2]): 15.1%

Q: For CC(C)CNC(=O)/C=C/c1cc2c(c([N+](=O)[O-])c1)OCO2, which Activity (Mus musculus [1]) is on record?
A: Its Activity is 98.

Q: And the inhibition in vivo at 10 mg/kg (Mus musculus [2])?
A: The inhibition in vivo at 10 mg/kg was 6.4%.

Q: With CN1CCN(C(=O)/C=C/c2cc3c(c(C(F)(F)F)c2)OCO3)CC1 as the compound, how does the Activity (Mus musculus [1]) read?
A: The Activity was 86.2.

Q: And the inhibition in vivo at 10 mg/kg (Mus musculus [2])?
A: Its inhibition in vivo at 10 mg/kg is 24%.

Q: And the solubility [3]?
A: Its solubility is “soluble”.

Q: Which results are given for COc1cc(/C=C/C(=O)NCC(C)C)cc2c1OCO2?
A: Activity (Mus musculus [1]): 100.92; inhibition in vivo at 10 mg/kg (Mus musculus [2]): 11.7%

Q: What does the source list for CCN(CC)C(=O)/C=C/c1cc2c(c(C(F)(F)F)c1)OCO2?
A: Activity (Mus musculus [1]): 95.3; inhibition in vivo at 10 mg/kg (Mus musculus [2]): 40.2%

Q: For CC(C)CNC(=O)CCc1cc2c(c(C(F)(F)F)c1)OCO2, which Activity (Mus musculus [1]) is on record?
A: The Activity was 86.6.

Q: And the inhibition in vivo at 10 mg/kg (Mus musculus [2])?
A: The inhibition in vivo at 10 mg/kg was 28.8%.

Q: For CNCCC(Oc1ccc(C(F)(F)F)cc1)c1ccccc1 (stereo not drawn) [FLUOXETINE], which inhibition in vivo at 10 mg/kg (Mus musculus [5]) is on record?
A: The inhibition in vivo at 10 mg/kg was 29%.

Q: What about the Activity (Mus musculus [1]) of the same compound?
A: The Activity was 102.

Q: What about the inhibition in vivo at 10 mg/kg (Mus musculus [2]) of the same compound?
A: The inhibition in vivo at 10 mg/kg was 39.4%.
